Measured values reported in patent publication US6620839B2, “1,3-disubstituted and 1,3,3-trisubstituted pyrrolidines as histamine-3 receptor ligands and their therapeutic applications” (Abbott Laboratories, priority 2000, dated 2003).

target: T1, histamine-3 receptor (Rattus norvegicus, UniProt Q9QYN8); experiment: Histamine-3 receptor binding, (3H)-N-α-methylhistamine displacement in rat cortical membranes; conditions: male Sprague-Dawley rat brain cortical membranes; (3H)-N-α-methylhistamine ~0.6 nM; 30 minutes at 25° C.; Cheng-Prusoff
T1 construct: from tissue; host or cells: male Sprague-Dawley rat brain cortex membranes
Experimental: Briefly, male Sprague-Dawley rat brain cortices were homogenized (1 g tissue/10 mL buffer) in 50 mM Tris-HCl/5 mM EDTA containing protease inhibitor cocktail (Calbiochem) using a polytron set at 20,500 rpm. Homogenates were centrifuged for 20 minutes at 40,000×g. The supernatant was decanted, and pellets were weighed. The pellet was resuspended by polytron homogenization in 40 mL 50 mM Tris-HCl/5 mM EDTA with protease inhibitors and centrifuged for 20 minutes at 40,000×g. […] Test compounds were dissolved in DMSO to provide 20 mM solution, serially diluted and then added to the incubation mixtures prior to initiating the incubation assay by addition of the membranes. Thioperamide (3 μM) was used to determine nonspecific binding. Binding incubations were conducted for 30 minutes at 25° C. and terminated by addition of 2 mL of ice cold 50 mM Tris-HCl (pH 7.7) and filtration through 0.3% polyethylenimine-soaked Unifilter plates (Packard). These filters were washed 4 additional times with 2 mL of ice-cold 50 mM Tris-HCl and dried for 1 hour. Radioactivity was determined using liquid scintillation counting techniques. Results were analyzed by Hill transformation and Ki values were determined using the Cheng-Prusoff equation.

T1 sequence (Q9QYN8 whole entry): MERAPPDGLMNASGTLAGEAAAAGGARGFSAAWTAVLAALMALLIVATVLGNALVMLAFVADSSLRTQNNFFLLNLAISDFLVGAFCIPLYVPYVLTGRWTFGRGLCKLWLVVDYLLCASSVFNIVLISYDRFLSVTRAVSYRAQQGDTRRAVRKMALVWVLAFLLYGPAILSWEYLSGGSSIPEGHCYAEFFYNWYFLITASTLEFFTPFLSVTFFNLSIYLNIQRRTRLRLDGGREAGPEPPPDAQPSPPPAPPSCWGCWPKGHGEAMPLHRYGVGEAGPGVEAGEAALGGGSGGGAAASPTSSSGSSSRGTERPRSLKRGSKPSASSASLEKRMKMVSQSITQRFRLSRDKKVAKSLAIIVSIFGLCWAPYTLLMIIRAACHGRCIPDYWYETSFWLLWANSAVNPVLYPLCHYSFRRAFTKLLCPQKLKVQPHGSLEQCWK

| Molecule | Ki [nM] |
| --- | --- |
| CC(=O)c1ccc(OCCCN2CC[C@@H](NC(=O)C3CC3)C2)cc1 [Example 1, N-{(3R)-1-[3-(4-acetylphenoxy)propyl]pyrrolidinyl}cyclopropanecarboxamide] | 105 |
| CC(=O)c1ccc(OCCCN2CC[C@@H](NC(=O)CSc3nccc(C)n3)C2)cc1 [Example 2, N-{(3R)-1-[3-(4-acetylphenoxy)propyl]pyrrolidinyl}-2-[(4-methyl-2-pyrimidinyl)sulfanyl]acetamide] | 68 |
| CC(=O)c1ccc(OCCCN2CC[C@@H](NC(=O)c3csc(-c4cccnc4)n3)C2)cc1 [Example 4, N-{(3R)-1-[3-(4-acetylphenoxy)propyl]pyrrolidinyl}-2-(3-pyridinyl)-1,3-thiazole-4-carboxamide] | 55 |
| CC(=O)c1ccc(OCCCN2CC[C@@H](NS(=O)(=O)C(C)C)C2)cc1 [Example 6, N-{(3R)-1-[3-(4-acetylphenoxy)propyl]pyrrolidinyl}-2-propanesulfonamide] | 95 |
| CC(=O)c1ccc(OCCCN2CC[C@@H](N3C(=O)N[C@@H](C)C3=O)C2)cc1 [Example 9, (5S)-3-{(3R)-1-[3-(4-acetylphenoxy)propyl]pyrrolidinyl}-5-methyl-2,4-imidazolidinedione] | 675 |
| CC(=O)c1ccc(OCCCN2CC[C@@H](N3C(=O)N[C@H](C(C)C)C3=O)C2)cc1 [Example 10, (5R)-3-{(3R)-1-[3-(4-acetylphenoxy)propyl]pyrrolidinyl}-5-isopropyl-2,4-imidazolidinedione] | 626 |
| CC(C)S(=O)(=O)N[C@@H]1CCN(CCCOc2ccc(C(=O)C3CC3)cc2)C1 [Example 12, N-((3R)-1-{3-[4-(cyclopropylcarbonyl)phenoxy]propyl}pyrrolidinyl)-2-propanesulfonamide] | 71 |
| O=C(N[C@@H]1CCN(CCCOc2ccc(C(=O)C3CC3)cc2)C1)c1csc(-c2cccnc2)n1 [Example 13, N-((3R)-1-{3-[4-(cyclopropylcarbonyl)phenoxy]propyl}pyrrolidinyl)-2-(3-pyridinyl)-1,3-thiazole-4-carboxamide] | 50 |
| CC(=O)c1ccc(OCCCN2CC[C@@H](NC(=O)c3ccc(C#N)cc3)C2)cc1 [Example 14, N-{(3R)-1-[3-(4-acetylphenoxy)propyl]pyrrolidinyl}-4-cyanobenzamide] | 40 |
| N#Cc1ccc(-c2ccc(OCCCN3CC[C@@H](NS(=O)(=O)c4ccc(Br)cc4)C3)cc2)cc1 [Example 16, 4-bromo-N-((3R)-1-{3-[(4′-cyano[1,1′-biphenyl]-4-yl)oxy]propyl}pyrrolidinyl)benzenesulfonamide] | 67 |
| COc1ccc(OC)c(S(=O)(=O)N[C@@H]2CCN(CCCOc3ccc(-c4ccc(C#N)cc4)cc3)C2)c1 [Example 24] | 43 |
| N#Cc1ccc(-c2ccc(OCCCN3CC[C@@H](NS(=O)(=O)c4ccc(F)c(Cl)c4)C3)cc2)cc1 [Example 26, 3-chloro-N-((3R)-1-{3-[(4′-cyano[1,1′-biphenyl]-4-yl)oxy]propyl}pyrrolidinyl)-4-fluorobenzenesulfonamide] | 57 |
| N#Cc1ccc(-c2ccc(OCCCN3CC[C@@H](NS(=O)(=O)c4cc(Cl)cc(Cl)c4)C3)cc2)cc1 [Example 32, 3,5-dichloro-N-((3R)-1-{3-[(4′-cyano[1,1′-biphenyl]-4-yl)oxy]propyl}pyrrolidinyl)benzenesulfonamide] | 99 |
| Cc1c(S(=O)(=O)N[C@@H]2CCN(CCCOc3ccc(-c4ccc(C#N)cc4)cc3)C2)sc2ccc(Cl)cc12 [Example 37, 5-chloro-N-((3R)-1-{3-[(4′-cyano[1,1′-biphenyl]-4-yl)oxy]propyl}pyrrolidinyl)-3-methyl-1-benzothiophene-2-sulfonamide] | 349 |
| N#Cc1ccc(-c2ccc(OCCCN3CC[C@@H](NS(=O)(=O)c4cc(C(F)(F)F)cc(C(F)(F)F)c4)C3)cc2)cc1 [Example 38] | 132 |
| N#Cc1ccc(-c2ccc(OCCCN3CC[C@@H](NS(=O)(=O)c4cccc5cccnc45)C3)cc2)cc1 [Example 40] | 51 |
| CCCCOc1ccc(S(=O)(=O)N[C@@H]2CCN(CCCOc3ccc(-c4ccc(C#N)cc4)cc3)C2)cc1 [Example 41, 4-butoxy-N-((3R)-1-{3-[(4′-cyano[1,1′-biphenyl]-4-yl)oxy]propyl}pyrrolidinyl)benzenesulfonamide] | 48 |
| N#Cc1ccc(-c2ccc(OCCCN3CC[C@@H](NS(=O)(=O)C=Cc4ccccc4)C3)cc2)cc1 [Example 44] | 52 |

Now those with a lower Ki, led by results:

| Ki [nM] | Molecule |
| --- | --- |
| 31 | 1-(4-{3-[(3R)-3-aminopyrrolidinyl]propoxy}phenyl)-1-propanone [Example 7] |
| 6.3 | CC(=O)c1ccc(OCCCN2CC[C@@H](NS(=O)(=O)c3ccc(C#N)cc3)C2)cc1 [Example 5, N-{(3R)-1-[3-(4-acetylphenoxy)propyl]pyrrolidinyl}-4-cyanobenzenesulfonamide] |
| 4 | N#Cc1ccc(S(=O)(=O)N[C@@H]2CCN(CCCOc3ccc(C(=O)C4CC4)cc3)C2)cc1 [Example 11, 4-cyano-N-((3R)-1-{3-[4-(cyclopropylcarbonyl)phenoxy]propyl}pyrrolidinyl)benzenesulfonamide] |
| 7.3 | N#Cc1ccc(-c2ccc(OCCCN3CC[C@@H](NS(=O)(=O)c4ccccc4)C3)cc2)cc1 [Example 15] |
| 13 | N#Cc1ccc(-c2ccc(OCCCN3CC[C@@H](NS(=O)(=O)c4ccc(F)cc4)C3)cc2)cc1 [Example 17] |
| 29 | N#Cc1ccc(-c2ccc(OCCCN3CC[C@@H](NS(=O)(=O)c4ccc(Cl)cc4)C3)cc2)cc1 [Example 18, 4-chloro-N-((3R)-1-{3-[(4′-cyano[1,1′-biphenyl]-4-yl)oxy]propyl}pyrrolidinyl)benzenesulfonamide] |
| 3.8 | CC(=O)Nc1ccc(S(=O)(=O)N[C@@H]2CCN(CCCOc3ccc(-c4ccc(C#N)cc4)cc3)C2)cc1 [Example 19, N-(4-{[((3R)-1-{3-[(4′-cyano[1,1′-biphenyl]-4-yl)oxy]propyl}pyrrolidinyl)amino]sulfonyl}phenyl)acetamide] |
| 12 | COc1ccc(S(=O)(=O)N[C@@H]2CCN(CCCOc3ccc(-c4ccc(C#N)cc4)cc3)C2)cc1 [Example 20] |
| 22 | CC(C)(C)c1ccc(S(=O)(=O)N[C@@H]2CCN(CCCOc3ccc(-c4ccc(C#N)cc4)cc3)C2)cc1 [Example 21, 4-tert-butyl-N-((3R)-1-{3-[(4′-cyano[1,1′-biphenyl]-4-yl)oxy]propyl}pyrrolidinyl)benzenesulfonamide] |
| 12 | Cc1ccc(S(=O)(=O)N[C@@H]2CCN(CCCOc3ccc(-c4ccc(C#N)cc4)cc3)C2)cc1 [Example 22] |
| 33 | N#Cc1ccc(-c2ccc(OCCCN3CC[C@@H](NS(=O)(=O)c4ccc(C(F)(F)F)cc4)C3)cc2)cc1 [Example 23] |
| 30 | Cc1ccccc1S(=O)(=O)N[C@@H]1CCN(CCCOc2ccc(-c3ccc(C#N)cc3)cc2)C1 [Example 25] |
| 18 | CCc1ccc(S(=O)(=O)N[C@@H]2CCN(CCCOc3ccc(-c4ccc(C#N)cc4)cc3)C2)cc1 [Example 27] |
| 16 | CC(C)c1ccc(S(=O)(=O)N[C@@H]2CCN(CCCOc3ccc(-c4ccc(C#N)cc4)cc3)C2)cc1 [Example 28] |
| 5.9 | N#Cc1ccc(-c2ccc(OCCCN3CC[C@@H](NS(=O)(=O)c4ccccc4F)C3)cc2)cc1 [Example 29] |
| 10 | N#Cc1ccc(-c2ccc(OCCCN3CC[C@@H](NS(=O)(=O)c4ccccc4Cl)C3)cc2)cc1 [Example 30, 2-chloro-N-((3R)-1-{3-[(4′-cyano[1,1′-biphenyl]-4-yl)oxy]propyl}pyrrolidinyl)benzenesulfonamide] |
| 30 | N#Cc1ccc(-c2ccc(OCCCN3CC[C@@H](NS(=O)(=O)c4cccc(Cl)c4)C3)cc2)cc1 [Example 31, 3-chloro-N-((3R)-1-{3-[(4′-cyano[1,1′-biphenyl]-4-yl)oxy]propyl}pyrrolidinyl)benzenesulfonamide] |
| 16 | N#Cc1ccc(-c2ccc(OCCCN3CC[C@@H](NS(=O)(=O)c4ccc(C#N)cc4)C3)cc2)cc1 [Example 33, 4-cyano-N-((3R)-1-{3-[(4′-cyano[1,1′-biphenyl]-4-yl)oxy]propyl}pyrrolidinyl)benzenesulfonamide] |
| 11 | N#Cc1ccc(-c2ccc(OCCCN3CC[C@@H](NS(=O)(=O)c4cccc(C#N)c4)C3)cc2)cc1 [Example 34, 3-cyano-N-((3R)-1-{3-[(4′-cyano[1,1′-biphenyl]-4-yl)oxy]propyl}pyrrolidinyl)benzenesulfonamide] |
| 13 | Cn1cnc(S(=O)(=O)N[C@@H]2CCN(CCCOc3ccc(-c4ccc(C#N)cc4)cc3)C2)c1 [Example 35] |
| 12 | N#Cc1ccc(-c2ccc(OCCCN3CC[C@@H](NS(=O)(=O)c4cccs4)C3)cc2)cc1 [Example 36] |
| 7.6 | CC(=O)Nc1nc(C)c(S(=O)(=O)N[C@@H]2CCN(CCCOc3ccc(-c4ccc(C#N)cc4)cc3)C2)s1 [Example 39, N-(5-{[((3R)-1-{3-[(4′-cyano[1,1′-biphenyl]-4-yl)oxy]propyl}pyrrolidinyl)amino]sulfonyl}-4-methyl-1,3-thiazol-2-yl)acetamide] |
| 8.8 | COc1ccc(S(=O)(=O)N[C@@H]2CCN(CCCOc3ccc(-c4ccc(C#N)cc4)cc3)C2)cc1OC [Example 42] |
| 37 | Cc1ccc(S(=O)(=O)N[C@@H]2CCN(CCCOc3ccc(-c4ccc(C#N)cc4)cc3)C2)cc1Cl [Example 43, 3-chloro-N-((3R)-1-{3-[(4′-cyano[1,1′-biphenyl]-4-yl)oxy]propyl}pyrrolidinyl)-4-methylbenzenesulfonamide] |
